In PubChem BioAssay (NCI):
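Each compound was tested at five concentrations against cells in 96-well plates for 48 hours. Here, GI50 denotes the concentration required for 50% inhibition of growth. TGI marks complete inhibition of growth.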 *1 amine or outer side, *2 acyl side, *3 side chain or, on linkers, in order; H or OH if unused. Where a SMILES comes first, the peptide text is derived from it. Bridges are numbered along the chain shown (N, C = ends). [ ]: non-standard residue; d: D form. The star is where a group is joined. X19 = O=C([C@H](N[*:1])c1ccc(O[C@H]2O[C@@H](CO)[C@@H](O)[C@@H](O)[C@H]2O[C@@H]2O[C@H](CO)[C@H](O)[C@H](O)[C@@H]2O)cc1)[*:2]; X18 = NC(=O)[C@@H](O[*:3])[C@H](N[*:1])C(=O)[*:2]; X20 = O=C([C@H](N[*:1])c1ccc(O)c(Cl)c1)[*:2]; d(aThr) = C[C@@H](O)[C@@H](N)C(=O)O; dHpg = N[C@@H](C(=O)O)c1ccc(O)cc1; X17 = CC(C)C/C=C/C=C/C(=O)*; dOrn = NCCC[C@@H](N)C(=O)O

Assays:
Assay in all cases: NCI-60 cell line screen, 48 h
786-0 renal = tested on: 786-0 renal
A498 renal = tested on: A498 renal
A549 NSCLC = tested on: A549 NSCLC
ACHN renal = tested on: ACHN renal
BT-549 breast = tested on: BT-549 breast
CAKI-1 renal = tested on: CAKI-1 renal
COLO 205 colon = tested on: COLO 205 colon
DU-145 prostate = tested on: DU-145 prostate
EKVX NSCLC = tested on: EKVX NSCLC
HCC-2998 colon = tested on: HCC-2998 colon
HCT-116 colon = tested on: HCT-116 colon
HCT-15 colon = tested on: HCT-15 colon
HL-60(TB) leukemia = tested on: HL-60(TB) leukemia
HOP-62 NSCLC = tested on: HOP-62 NSCLC
HOP-92 NSCLC = tested on: HOP-92 NSCLC
HS 578T breast = tested on: HS 578T breast
HT29 colon = tested on: HT29 colon
IGROV1 ovarian = tested on: IGROV1 ovarian
K-562 leukemia = tested on: K-562 leukemia
KM12 colon = tested on: KM12 colon
LOX IMVI melanoma = tested on: LOX IMVI melanoma
M14 melanoma = tested on: M14 melanoma
MALME-3M melanoma = tested on: MALME-3M melanoma
MCF7 breast = tested on: MCF7 breast
MDA-MB-231 breast = tested on: MDA-MB-231 breast
MDA-MB-435 = tested on: MDA-MB-435
MOLT-4 leukemia = tested on: MOLT-4 leukemia
NCI-H23 lung = tested on: NCI-H23 lung
NCI-H460 lung = tested on: NCI-H460 lung
NCI-H522 lung = tested on: NCI-H522 lung
NCI/ADR-RES ovarian = tested on: NCI/ADR-RES ovarian
OVCAR-3 ovarian = tested on: OVCAR-3 ovarian
OVCAR-4 ovarian = tested on: OVCAR-4 ovarian
OVCAR-5 ovarian = tested on: OVCAR-5 ovarian
OVCAR-8 ovarian = tested on: OVCAR-8 ovarian
PC-3 prostate = tested on: PC-3 prostate
RPMI-8226 leukemia = tested on: RPMI-8226 leukemia
RXF 393 renal = tested on: RXF 393 renal
SF-268 CNS = tested on: SF-268 CNS
SF-295 CNS = tested on: SF-295 CNS
SF-539 CNS = tested on: SF-539 CNS
SK-MEL-2 melanoma = tested on: SK-MEL-2 melanoma
SK-MEL-28 melanoma = tested on: SK-MEL-28 melanoma
SK-MEL-5 melanoma = tested on: SK-MEL-5 melanoma
SK-OV-3 ovarian = tested on: SK-OV-3 ovarian
SN12C renal = tested on: SN12C renal
SNB-19 CNS = tested on: SNB-19 CNS
SNB-75 CNS = tested on: SNB-75 CNS
SR leukemia = tested on: SR leukemia
SW-620 colon = tested on: SW-620 colon
T-47D breast = tested on: T-47D breast
TK-10 renal = tested on: TK-10 renal
U251 CNS = tested on: U251 CNS
UACC-257 melanoma = tested on: UACC-257 melanoma
UACC-62 melanoma = tested on: UACC-62 melanoma
UO-31 renal = tested on: UO-31 renal

Structure (SMILES): CC(C)C/C=C/C=C/C(=O)N[C@@H](CC(N)=O)C(=O)N[C@@H]1C(=O)N[C@H](c2ccc(O)cc2)C(=O)N[C@H](CCCN)C(=O)N[C@H]([C@@H](C)O)C(=O)N[C@H](c2ccc(O)cc2)C(=O)N[C@H](c2ccc(O)cc2)C(=O)N[C@H]([C@H](C)O)C(=O)N[C@H](Cc2ccccc2)C(=O)N[C@H](CCCN)C(=O)N[C@H](c2ccc(O[C@H]3O[C@@H](CO)[C@@H](O)[C@@H](O)[C@H]3O[C@@H]3O[C@H](CO)[C@H](O)[C@H](O)[C@@H]3O)cc2)C(=O)N[C@H]([C@H](C)O)C(=O)N[C@H](c2ccc(O)cc2)C(=O)NCC(=O)N[C@H](CC(C)C)C(=O)N[C@H](C)C(=O)N[C@H](c2ccc(O)c(Cl)c2)C(=O)O[C@@H]1C(N)=O (X17-N[X18][dHpg][dOrn][d(aThr)][dHpg][dHpg][dT][dF][dOrn][X19][dT][dHpg]G[dL][dA][X20]; ester 2-C)
- GI50 (786-0 renal): 25 µM
- TGI (786-0 renal): 56.7 µM
- GI50 (A498 renal): 80.9 µM
- TGI (A498 renal): > 100 µM
- GI50 (A549 NSCLC): > 100 µM
- TGI (A549 NSCLC): > 100 µM
- GI50 (ACHN renal): 68.7 µM
- TGI (ACHN renal): > 100 µM
- GI50 (BT-549 breast): 37.6 µM
- TGI (BT-549 breast): 87.1 µM
- GI50 (CAKI-1 renal): > 100 µM
- TGI (CAKI-1 renal): > 100 µM
- GI50 (COLO 205 colon): 37.8 µM
- TGI (COLO 205 colon): > 100 µM
- GI50 (DU-145 prostate): 37.4 µM
- TGI (DU-145 prostate): > 100 µM
- GI50 (EKVX NSCLC): 50.6 µM
- TGI (EKVX NSCLC): > 100 µM
- GI50 (HCC-2998 colon): 57.2 µM
- TGI (HCC-2998 colon): > 100 µM
- GI50 (HCT-116 colon): 32.9 µM
- TGI (HCT-116 colon): > 100 µM
- GI50 (HCT-15 colon): 30.3 µM
- TGI (HCT-15 colon): > 100 µM
- GI50 (HL-60(TB) leukemia): > 100 µM
- TGI (HL-60(TB) leukemia): > 100 µM
- GI50 (HOP-62 NSCLC): 29.9 µM
- TGI (HOP-62 NSCLC): 78.2 µM
- GI50 (HOP-92 NSCLC): 80 µM
- TGI (HOP-92 NSCLC): > 100 µM
- GI50 (HS 578T breast): 27.8 µM
- TGI (HS 578T breast): 82.1 µM
- GI50 (HT29 colon): 33.2 µM
- TGI (HT29 colon): > 100 µM
- GI50 (IGROV1 ovarian): > 100 µM
- TGI (IGROV1 ovarian): > 100 µM
- GI50 (K-562 leukemia): 36.3 µM
- TGI (K-562 leukemia): > 100 µM
- GI50 (KM12 colon): 27.8 µM
- TGI (KM12 colon): > 100 µM
- GI50 (LOX IMVI melanoma): 29.5 µM
- TGI (LOX IMVI melanoma): > 100 µM
- GI50 (M14 melanoma): 38.4 µM
- TGI (M14 melanoma): > 100 µM
- GI50 (MALME-3M melanoma): 29.7 µM
- TGI (MALME-3M melanoma): 65.5 µM
- GI50 (MCF7 breast): 31.9 µM
- TGI (MCF7 breast): 94.7 µM
- GI50 (MDA-MB-231 breast): 16.1 µM
- TGI (MDA-MB-231 breast): 39.6 µM
- GI50 (MDA-MB-435): 26 µM
- TGI (MDA-MB-435): 72.8 µM
- GI50 (MOLT-4 leukemia): 31.7 µM
- TGI (MOLT-4 leukemia): > 100 µM
- GI50 (NCI-H23 lung): 25.8 µM
- TGI (NCI-H23 lung): 88.9 µM
- GI50 (NCI-H460 lung): 23.5 µM
- TGI (NCI-H460 lung): 66.9 µM
- GI50 (NCI-H522 lung): 33.9 µM
- TGI (NCI-H522 lung): > 100 µM
- GI50 (NCI/ADR-RES ovarian): 39.5 µM
- TGI (NCI/ADR-RES ovarian): > 100 µM
- GI50 (OVCAR-3 ovarian): 46.5 µM
- TGI (OVCAR-3 ovarian): > 100 µM
- GI50 (OVCAR-4 ovarian): 39.2 µM
- TGI (OVCAR-4 ovarian): > 100 µM
- GI50 (OVCAR-5 ovarian): 27 µM
- TGI (OVCAR-5 ovarian): 63.5 µM
- GI50 (OVCAR-8 ovarian): 46.8 µM
- TGI (OVCAR-8 ovarian): > 100 µM
- GI50 (PC-3 prostate): 44 µM
- TGI (PC-3 prostate): > 100 µM
- GI50 (RPMI-8226 leukemia): 59.8 µM
- TGI (RPMI-8226 leukemia): > 100 µM
- GI50 (RXF 393 renal): 86 µM
- TGI (RXF 393 renal): > 100 µM
- GI50 (SF-268 CNS): 34.2 µM
- TGI (SF-268 CNS): > 100 µM
- GI50 (SF-295 CNS): 15.8 µM
- TGI (SF-295 CNS): 46.1 µM
- GI50 (SF-539 CNS): 22.8 µM
- TGI (SF-539 CNS): 60.9 µM
- GI50 (SK-MEL-2 melanoma): > 100 µM
- TGI (SK-MEL-2 melanoma): > 100 µM
- GI50 (SK-MEL-28 melanoma): 23.6 µM
- TGI (SK-MEL-28 melanoma): 47.8 µM
- GI50 (SK-MEL-5 melanoma): 22.1 µM
- TGI (SK-MEL-5 melanoma): 44.6 µM
- GI50 (SK-OV-3 ovarian): 25.3 µM
- TGI (SK-OV-3 ovarian): 64.9 µM
- GI50 (SN12C renal): > 100 µM
- TGI (SN12C renal): > 100 µM
- GI50 (SNB-19 CNS): 23.9 µM
- TGI (SNB-19 CNS): 55.4 µM
- GI50 (SNB-75 CNS): 29.4 µM
- TGI (SNB-75 CNS): 79.8 µM
- GI50 (SR leukemia): > 100 µM
- TGI (SR leukemia): > 100 µM
- GI50 (SW-620 colon): 26.2 µM
- TGI (SW-620 colon): 74.8 µM
- GI50 (T-47D breast): 34.6 µM
- TGI (T-47D breast): 98.9 µM
- GI50 (TK-10 renal): 38.7 µM
- TGI (TK-10 renal): 91.1 µM
- GI50 (U251 CNS): 24.1 µM
- TGI (U251 CNS): 55 µM
- GI50 (UACC-257 melanoma): 21.9 µM
- TGI (UACC-257 melanoma): 47.4 µM
- GI50 (UACC-62 melanoma): 21.2 µM
- TGI (UACC-62 melanoma): 45.1 µM
- GI50 (UO-31 renal): > 100 µM
- TGI (UO-31 renal): > 100 µM
